From US8057659B2, “Detection of analytes in a dual-mediator electrochemical test strip” (AgaMatrix, Inc., priority 2006, dated 2011)

What was measured:
[1] = Redox potential of the mediator; assay type: physicochemical
Source text: Another specific mediator is [Os(Mebpy)2Pic]^+/2+.

[2] = molecular target: GOX (Aspergillus niger, UniProt P13006); conditions: 3+ form of mediator
Chain of GOX (P13006 17-605, species assumed): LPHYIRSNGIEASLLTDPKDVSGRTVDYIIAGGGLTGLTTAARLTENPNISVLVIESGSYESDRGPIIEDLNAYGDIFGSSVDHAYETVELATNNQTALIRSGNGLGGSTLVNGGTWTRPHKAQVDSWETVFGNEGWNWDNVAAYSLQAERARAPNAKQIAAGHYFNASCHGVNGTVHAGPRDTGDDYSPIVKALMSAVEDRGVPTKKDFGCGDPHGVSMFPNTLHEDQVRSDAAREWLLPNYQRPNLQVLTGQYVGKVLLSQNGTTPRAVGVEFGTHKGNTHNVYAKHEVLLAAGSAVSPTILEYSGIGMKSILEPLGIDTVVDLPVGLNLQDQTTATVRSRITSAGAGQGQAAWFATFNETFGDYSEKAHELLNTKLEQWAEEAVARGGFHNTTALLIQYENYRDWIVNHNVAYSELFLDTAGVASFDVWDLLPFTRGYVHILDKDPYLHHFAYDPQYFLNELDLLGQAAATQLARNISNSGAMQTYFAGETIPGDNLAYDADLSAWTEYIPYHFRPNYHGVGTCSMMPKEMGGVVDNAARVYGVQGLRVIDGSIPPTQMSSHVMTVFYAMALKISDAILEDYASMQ

[Os(MeBpy)2(Im)2]^2+/3+
redox potential E^o [1]: 140-154 mV | second order rate constant of electron transfer from GOX to the 3+ mediator [2]: approximately 4.0×10^5 M^−1s^−1
